In one series the test system is Mus musculus. The series is described as follows: Anticholinergic activity in mouse assessed as mydriasis at 100 mg/kg, po measured after 1 to 24 hrs post dose. The format is ADME, organism-based. More on the design: dose 100 mg/kg, route oral. The settings on record: in vivo.
Series [1] is described as follows: Toxicity in histamine-induced guinea pig assessed as change in rate of beating in right atrium at 10 ' -5 to 5 x 10' -5 M after 5 mins. The series is classed as tissue-based, Cavia porcellus, Cardiac atrium.
Series [2] relates to Rattus norvegicus. The series is described as follows: Antiulcer activity in po dosed albino rat pyloric ligation model assessed as inhibition of gastric secretion administered as single dose 1 to 24 hrs prior to ligation. The format is functional, organism-based. The settings on record: Stomach.
In series [3] the test system is Rattus norvegicus. Briefly: Antiulcer activity in sc dosed albino rat pyloric ligation model assessed as inhibition of gastric secretion administered as single dose 1 to 24 hrs prior to ligation. The series is classed as functional, organism-based. The settings on record: Stomach.
The species entered for series [4] is Rattus norvegicus. The series is described as follows: animal or person. The settings on record: po, read-out: INH.
For series [5], the species on record is Rattus norvegicus. The series is described as follows: animal or person. The settings on record: Stomach, po, read-out: INH.
In series [6] the test system is Rattus norvegicus. The series is described as follows: Antiulcer activity in albino rat pyloric ligation model assessed as elevation of gastric pH at 6.25 mg/kg, po administered as single dose during prior ligation (Rvb =1.1 no_unit). The format is functional, Stomach.
Series [7] in a line: Drug excretion in rat urine administered as single dose 1 to 24 hrs prior to ligation. The format is ADME. The settings on record: in vivo.
Series [8] has as its system Rattus norvegicus. Briefly: Antiulcer activity in albino rat pyloric ligation model assessed as inhibition of gastric volume at 100 mg/kg, po administered as single dose 1 hr prior ligation relative to control. The format is functional. The settings on record: Stomach.
Series [9] relates to Rattus norvegicus. The series is described as follows: Antiulcer activity in albino rat pyloric ligation model assessed as inhibition of total acid output at 100 mg/kg, po administered as single dose 1 hr prior ligation relative to control. The format is functional.
In series [10] the test system is Rattus norvegicus. The series is described as follows: Antiulcer activity in albino rat pyloric ligation model assessed as elevation of gastric pH at 100 mg/kg, po administered as single dose 1 hr prior ligation (Rvb =1.1 no_unit). The series is classed as functional, Stomach.
Series [11] deals with Rattus norvegicus. Briefly: Antiulcer activity in albino rat pyloric ligation model assessed as inhibition of total acid output at 25 mg/kg, po administered as single dose 1 hr prior ligation relative to control. The format is functional.
Series [12] concerns Rattus norvegicus. The series is described as follows: Antiulcer activity in albino rat pyloric ligation model assessed as inhibition of total acid output at 100 mg/kg, po administered as single dose during ligation relative to control. The series is classed as functional.
Series [13] relates to Rattus norvegicus. The series is described as follows: Antiulcer activity in albino rat pyloric ligation model assessed as inhibition of gastric volume at 100 mg/kg, po administered as single dose 24 hrs prior ligation relative to control. The format is functional. The settings on record: Stomach.
For series [14], the system named is Canis familiaris. The series is described as follows: Toxicity in beagle dog at 50 mg/kg, po. The settings on record: in vivo. The series is classed as organism-based, Canis lupus familiaris. More on the design: dose 50 mg/kg, route oral.
Series [15] has as its system Rattus norvegicus. Briefly: Antiulcer activity in albino rat pyloric ligation model assessed as inhibition of total acid output at 100 mg/kg, po administered as single dose 24 hrs prior ligation relative to control. The series is classed as functional.
Series [16] relates to Rattus norvegicus. The series is described as follows: Antiulcer activity in albino rat pyloric ligation model assessed as elevation of gastric pH at 25 mg/kg, po administered as single dose 1 hr prior ligation (Rvb =1.1 no_unit). The series is classed as functional, Stomach.
In series [17] the test system is Rattus norvegicus. The series is described as follows: Antiulcer activity in albino rat pyloric ligation model assessed as inhibition of total acid output at 50 mg/kg, po administered as single dose 1 hr prior ligation relative to control. The format is functional.
In series [18] the test system is Rattus norvegicus. The series is described as follows: Antiulcer activity in albino rat pyloric ligation model assessed as inhibition of gastric volume at 200 mg/kg, po administered as single dose 1 hr prior ligation relative to control. The format is functional. The settings on record: Stomach.
The test system of series [19] is Rattus norvegicus. Briefly: Antiulcer activity in albino rat pyloric ligation model assessed as inhibition of gastric volume at 100 mg/kg, po administered as single dose during ligation relative to control. The series is classed as functional. The settings on record: Stomach.
The subject of series [20] is Rattus norvegicus. The series is described as follows: Antiulcer activity in albino rat pyloric ligation model assessed as elevation of gastric pH at 50 mg/kg, po administered as single dose 1 hr prior ligation (Rvb =1.1 no_unit). The series is classed as functional, Stomach.
The test system of series [21] is Rattus norvegicus. The series is described as follows: Antiulcer activity in albino rat pyloric ligation model assessed as elevation of gastric pH at 200 mg/kg, po administered as single dose 1 hr prior ligation (Rvb =1.1 no_unit). The format is functional, Stomach.
Series [22] relates to Rattus norvegicus. The series is described as follows: Antiulcer activity in albino rat pyloric ligation model assessed as inhibition of total acid output at 200 mg/kg, po administered as single dose 1 hr prior ligation relative to control. The series is classed as functional.
Series [23] concerns Canis familiaris. The series is described as follows: Antisecretory activity in beagle dog with chronic gastric fistula assessed as inhibition of histamine-induced gastric secretion at 50 mg/kg, po measured every 15 mins post histamine treatment. The series is classed as functional, organism-based. More on the design: dose 50 mg/kg. The settings on record: Canis lupus familiaris, Stomach.

In series [24] the test system is Rattus norvegicus. The series is described as follows: Antiulcer activity in albino rat pyloric ligation model assessed as elevation of gastric pH at 100 mg/kg, po administered as single dose 24 hrs prior ligation (Rvb =1.1 no_unit). The format is functional, Stomach.
The test system of series [25] is Rattus norvegicus. Briefly: Antiulcer activity in albino rat pyloric ligation model assessed as elevation of gastric pH at 100 mg/kg, po administered as single dose during prior ligation (Rvb =1.1 no_unit). The format is functional, Stomach.
For series [26], the system named is Rattus norvegicus. The series is described as follows: Antiulcer activity in albino rat pyloric ligation model assessed as inhibition of gastric volume at 25 mg/kg, po administered as single dose 1 hr prior ligation relative to control. The format is functional. The settings on record: Stomach.
Series [27] relates to Rattus norvegicus. The series is described as follows: Antiulcer activity in albino rat pyloric ligation model assessed as inhibition of gastric volume at 50 mg/kg, po administered as single dose 1 hr prior ligation relative to control. The series is classed as functional. The settings on record: Stomach.
The species entered for series [28] is Homo sapiens. The series is described as follows: Antagonist activity at histamine receptor (unknown origin) assessed as shift in histamine-induced response at 10 '-5 M relative to control.
The species entered for series [29] is Homo sapiens. The series is described as follows: Antagonist activity at histamine receptor (unknown origin) assessed as shift in histamine-induced response at 5 x 10 '-5 M relative to control.

The source made the active and inactive calls. The calls are words filed in the database; no cut-off is given here.

From ChEMBL document CHEMBL3244210, “Experimental antiulcer drugs. 1. Indole-1-alkanamides and pyrrole-1-alkanamides” (J Med Chem, 1977) come the findings set out here.

For `Cc1c(C)c(C)n(CC(N)=O)c1C`, the Activity result (in the series with Mus musculus; in series [1]) was “Non-toxic” throughout. The inhibition result with Rattus norvegicus [2] and with Rattus norvegicus [3] was “inactive” throughout.

Turning to `Cc1ccc(C)n1CC(N)=O`, the inhibition result in the series on Rattus norvegicus [2] and in the series with Rattus norvegicus [3] was “inactive” throughout.

As to `c1ccc2[nH]ccc2c1`, the inhibition entry with Rattus norvegicus [2] and with Rattus norvegicus [3] was “Active” in each case.

For the compound `Cc1c(C)n(CCC(N)=O)c2ccccc12`, the inhibition entry in the series on Rattus norvegicus [2] and with Rattus norvegicus [3] was “Active” each time.

`Cc1cc2ccccc2[nH]1`: the inhibition entry with Rattus norvegicus [2] and with Rattus norvegicus [3] was “Active” throughout.

As to `Cc1c(CO)c2ccccc2n1CC(N)=O`, the inhibition entry in the series on Rattus norvegicus [2] was “inactive”. For the same compound, the inhibition result in the series with Rattus norvegicus [3] was “Active”.

For `Cc1ccc(C)n1CCC(N)=O`, the inhibition result with Rattus norvegicus [2] and with Rattus norvegicus [3] was “inactive” each time.

`CCc1c(C)n(CCC(N)=O)c2ccccc12`: the inhibition result with Rattus norvegicus [2] and in the series on Rattus norvegicus [3] was “inactive” in each case.

Consider `CN1[C@@H]2CC[C@H]1CC(OC(=O)[C@H](CO)c1ccccc1)C2` (stereo partly drawn) [ENDO-ATROPINE], for which the inhibition in vivo at 6.25 mg/kg came to 58% in the series filed under Rattus norvegicus [4] and 43% in the series listed under Rattus norvegicus [5]. The pH in the series with Rattus norvegicus [6] is 1.5.

As for `Cc1[nH]c2ccccc2c1C`, the Drug excretion result in series [7] was “metabolite_detected”. Further, the Activity entry (in the series with Mus musculus; in [1]) was “Non-toxic” throughout. For the same compound, the inhibition entry in the series on Rattus norvegicus [2] and in the series on Rattus norvegicus [3] was “Active” each time.

With `CCc1c(C)c2ccccc2n1CC(N)=O`, the inhibition entry in the series on Rattus norvegicus [2] and with Rattus norvegicus [3] was “inactive” in each case.

As for `CN/C(=N\CCSCc1nc[nH]c1C)NC#N` [CIMETIDINE], the values for the inhibition in vivo at 100 mg/kg with Rattus norvegicus [8] and in the series on Rattus norvegicus [9] were 14% and 37%, respectively. Moreover, the pH in the series with Rattus norvegicus [10] turned out to be 2.1.

Take `Cc1c(C)n(CCCC(N)=O)c2ccccc12`: the inhibition entry in the series on Rattus norvegicus [2] and with Rattus norvegicus [3] was “Active” throughout.

Turning to `Cc1cn(CC(N)=O)c2ccccc12`, the inhibition entry in the series on Rattus norvegicus [2] and in the series on Rattus norvegicus [3] was “inactive” each time.

As to `CCc1c(C)c2ccccc2n1CCC(N)=O`, the inhibition result in the series on Rattus norvegicus [2] and in the series on Rattus norvegicus [3] was “inactive” in each case.

Take `Cc1c[nH]c2ccccc12`: the inhibition result with Rattus norvegicus [2] and in the series with Rattus norvegicus [3] was “Active” each time.

For `Cc1c(CO)c2ccccc2n1CCC(N)=O`, the inhibition entry in the series on Rattus norvegicus [2] is “inactive”. Further, the inhibition result in the series with Rattus norvegicus [3] is “Active”.

In the case of `Cc1cc2ccccc2n1CCC(N)=O`, the inhibition result with Rattus norvegicus [2] and with Rattus norvegicus [3] was “inactive” each time.

Turning to `Cc1cc2ccccc2n1C`, the inhibition entry in the series with Rattus norvegicus [2] and in the series on Rattus norvegicus [3] was “inactive” each time.

For the compound `Cc1c(C)n(CC(N)=O)c2ccccc12`, the values for the inhibition in vivo at 25 mg/kg with Rattus norvegicus [11] and in the series with Rattus norvegicus [26] were 47% and 26%, respectively. The inhibition in vivo at 100 mg/kg amounted to 52% with Rattus norvegicus [12]; 44% with Rattus norvegicus [13]; 27% with Rattus norvegicus [8]; 69% with Rattus norvegicus [15]; 85% in the series on Rattus norvegicus [9]; 32% in the series with Rattus norvegicus [19]. Further, the results for the Activity entry (with Canis familiaris [14]; in the series on Mus musculus; in series [1]) were “Toxic”, “Non-toxic” and “Non-toxic”, respectively. Also, the pH in the series with Rattus norvegicus [16] turned out to be 2.6; with Rattus norvegicus [20], 3; with Rattus norvegicus [21], 6.7; in the series on Rattus norvegicus [10], 6; with Rattus norvegicus [24] it was 3.2; in the series on Rattus norvegicus [25], 1.5. Moreover, the figures for the inhibition in vivo at 50 mg/kg in the series on Rattus norvegicus [17] and with Rattus norvegicus [27] were 69% and 39%, respectively. The inhibition in vivo at 200 mg/kg in the series on Rattus norvegicus [18] was found to be 56%; with Rattus norvegicus [22] it was 88%. Also, in the series on Canis familiaris [23], the outcome was Active. Moreover, the inhibition entry in the series on Rattus norvegicus [2] and in the series on Rattus norvegicus [3] was “Active” throughout.

For the compound `CNC(=S)NCCSCc1[nH]cnc1C`, the fold change (FC) in the series filed under Homo sapiens [28] was determined as 11; in the series filed under Homo sapiens [29], 38.

Consider `Cc1cn(CCC(N)=O)c2ccccc12`, for which the inhibition entry with Rattus norvegicus [2] and in the series on Rattus norvegicus [3] was “inactive” throughout.

On to `CCc1c(C)n(CC(N)=O)c2ccccc12`, for which the inhibition entry in the series with Rattus norvegicus [2] and in the series with Rattus norvegicus [3] was “inactive” throughout.

With `Cc1cc2ccccc2n1CC(N)=O`, the inhibition result with Rattus norvegicus [2] and in the series on Rattus norvegicus [3] was “inactive” throughout.

`Cc1c(C)c(C)n(CCC(N)=O)c1C`: the inhibition result with Rattus norvegicus [2] and with Rattus norvegicus [3] was “inactive” throughout.

For `Cc1c(CO)c2ccccc2n1CCCC(N)=O`, the inhibition result with Rattus norvegicus [2] and with Rattus norvegicus [3] was “inactive” in each case.

Take `NC(=O)Cn1ccc2ccccc21`: the inhibition result in the series on Rattus norvegicus [2] and in the series on Rattus norvegicus [3] was “inactive” throughout.

With `Cc1c(CO)n(CCC(N)=O)c2ccccc12`, the inhibition result in the series on Rattus norvegicus [2] and in the series on Rattus norvegicus [3] was “inactive” in each case.
